Laboratory results published in US9969715B2, “Compounds useful for treating cancer” (ABIVAX, priority 2012, dated 2018).
Where two headings read alike, the source gives them in different places.

Experiments:
[1] = test system: MDA-MB231-luc-D3H2LN cells; assay: Toxicity assay under normal cell culture conditions (MTS), MDA cells; assay type: cell-based, human; settings: for toxicity on MDA-MB231 compared to comparative compound (in words): 1 vs C88 (112), 3 vs 583, 4 vs 585; for MDA tox: 50% tox. at (μM) av: MDA-MB231-luc-D3H2LN cells, MEM+10% FBS, 72 h incubation, MTS
How it was run: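 Under normal culture conditions (MEM with 10% FBS), MDA-MB231-luc-D3H2LN cells (2000/well) were exposed to compound concentration series for 72 h. Viability measured by MTS assay. Value is the concentration giving 50% toxicity.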

human PBMC = assay: Toxicity assay under normal cell culture conditions (MTS), PBMC; assay type: cell-based; settings: for toxicity on PBMC compared to comparative compound (in words): 1 vs C88 (112), 3 vs 583, 4 vs 585; for PBMC tox.: 50% tox. at (μM) av: human PBMC, RPMI+10% FBS+IL-2, 72 h incubation, MTS
How it was run: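 Human PBMC (75000/well) in RPMI + 10% FBS + IL-2 were exposed to compounds for 72 h, with viability read by MTS. Concentration-response curves gave the concentration producing 50% toxicity.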

[2] = test system: MDA-MB231-luc-D3H2LN cells; assay: Invasion of MDA-MB231-D3H2LN cells into collagen (example 15 = procedure 2, 48 h drug pre-incubation); assay type: cell-based; settings: for invasiveness inhibition compared to comparative compound (in words): 1 vs C88 (112), 4 vs 585
How it was run: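 Cells embedded at the bottom of collagen gels were pre-treated 48 h with compound in 0.025% FBS, then stimulated with 5% FBS for 24 h at 37° C. Nuclei were imaged at 0, 25 and 50 µm to give mean invasion distance, with MTS viability also measured. Value is the concentration giving 50% of the effect of 10 µM Y-27632.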

[3] = test system: MDA-MB231-luc-D3H2LN cells; assay: Viability (MTS) assay on the cells in collagen under invasion assay conditions; assay type: cell-based, human; settings: loss of viability at the concentration giving 0.5 × effect of 10 μM Y-27632, invasion assay conditions
How it was run: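 Run on cells embedded in collagen after a further 24 h, on serum-starved cells and in parallel on cells in 10% FBS. MTS reagent 3–4 h at 37 °C, absorbance at 490 nm; background-corrected signals expressed as % of untreated control.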

hERG channel = target: T1, hERG channel (Homo sapiens, UniProt Q12809); assay: hERG channel inhibition (electrophysiology, hERG-transfected HEK293 cells); assay type: cell-based; settings: for % hERG inhibition in transfected HEK (n = 3) at 1 μM av: 1 μM compound; for % hERG inhibition in transfected HEK (n = 3) at 10 μM av: 10 μM compound; for hERG inhibition compared to comparative compound (in words): 1 vs C88 (112), 3 vs 583, 4 vs 585
T1 construct: host or cells: HEK293
Procedure: Performed by Porsolt & Partners (Z. A. de Glatigné, 53940 Le Genest-Saint-Isle, France). Briefly, each 3 hERG-transfected HEK293 cells were superfused with the compounds at 1 and 10 μM, and the hERG channel current was measured by electrophysiology, as described by Crumb et al., J. Pharmacol. Exp. Ther. 2000.

[4] = concentration giving 50% of the anti-invasive effect of 10 μM Y-27632, 48 h pre-incubation, 24 h with 5% FBS, read-out: MDA: Inhib. of invasion: 0.5 × eff. of 10 μM Y-27632 at (μM) av

T1 sequence (Q12809 whole entry): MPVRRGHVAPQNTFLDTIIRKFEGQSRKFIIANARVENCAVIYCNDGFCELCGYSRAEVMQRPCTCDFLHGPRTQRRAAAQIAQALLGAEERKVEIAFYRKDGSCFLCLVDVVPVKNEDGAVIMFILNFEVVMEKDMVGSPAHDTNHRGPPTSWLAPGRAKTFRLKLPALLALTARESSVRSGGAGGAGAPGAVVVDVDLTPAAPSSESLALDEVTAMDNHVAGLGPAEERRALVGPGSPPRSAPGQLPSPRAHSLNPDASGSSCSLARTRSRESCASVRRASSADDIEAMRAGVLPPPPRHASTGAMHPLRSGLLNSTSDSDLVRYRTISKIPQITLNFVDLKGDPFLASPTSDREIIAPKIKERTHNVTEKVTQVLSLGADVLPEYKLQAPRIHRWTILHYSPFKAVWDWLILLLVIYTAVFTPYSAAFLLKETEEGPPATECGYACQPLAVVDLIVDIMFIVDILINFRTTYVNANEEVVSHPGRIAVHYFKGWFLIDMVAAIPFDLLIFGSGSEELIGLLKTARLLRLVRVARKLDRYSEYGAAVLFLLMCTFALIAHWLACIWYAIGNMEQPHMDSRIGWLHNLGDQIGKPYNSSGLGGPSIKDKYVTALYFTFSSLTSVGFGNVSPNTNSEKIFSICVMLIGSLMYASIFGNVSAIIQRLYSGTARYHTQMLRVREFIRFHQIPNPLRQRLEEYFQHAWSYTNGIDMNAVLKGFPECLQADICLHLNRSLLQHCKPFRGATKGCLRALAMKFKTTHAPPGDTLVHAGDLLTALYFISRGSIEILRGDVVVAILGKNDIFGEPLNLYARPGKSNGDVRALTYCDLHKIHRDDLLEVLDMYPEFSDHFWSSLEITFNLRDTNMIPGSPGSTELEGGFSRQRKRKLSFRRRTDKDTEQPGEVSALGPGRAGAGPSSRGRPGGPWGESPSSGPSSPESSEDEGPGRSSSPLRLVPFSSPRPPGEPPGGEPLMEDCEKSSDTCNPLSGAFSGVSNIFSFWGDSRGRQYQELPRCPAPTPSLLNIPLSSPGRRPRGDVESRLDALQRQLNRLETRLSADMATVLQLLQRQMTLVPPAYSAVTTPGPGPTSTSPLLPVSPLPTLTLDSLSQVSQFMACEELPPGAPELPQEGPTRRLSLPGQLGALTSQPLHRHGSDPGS

Row | Compound | toxicity on MDA-MB231 compared to comparative compound (in words) [1] | MDA tox: 50% tox. at (μM) av [1] | toxicity on PBMC compared to comparative compound (in words) (human PBMC) | PBMC tox.: 50% tox. at (μM) av (human PBMC) | IC50 [2, 4] | (+ MDA tox. under these cond.) % tox [3] | % hERG inhibition in transfected HEK (n = 3) at 1 μM av (hERG channel) | % hERG inhibition in transfected HEK (n = 3) at 10 μM av (hERG channel) | hERG inhibition compared to comparative compound (in words) (hERG channel) | invasiveness inhibition compared to comparative compound (in words) [2] | IC50 ([2]; Homo sapiens, procedure 2, second set of experiments, read-out: Invasion Av.: concentration of the compound necessary to reach 50% of the inhibition effect compared to 10 μM Y-27632) | anti-invasive activity (in words) ([2]; second set of experiments, procedure 2 (example 15))
1 | O=C(NCCCN1CCOCC1)c1cccc(Nc2cccc(C(=O)Nc3ccncc3)c2)c1 [Compound 3, N-(3-morpholinopropyl)-3-((3-(pyridin-4-ylcarbamoyl)phenyl)amino)benzamide] | less toxic | 51 µM | less toxic | 51 µM | 0.29 µM | <10% | 14% | 54% | less hERG inhibition | – | – | –
2 | CCN(CC)CCCNS(=O)(=O)c1cccc(Nc2cccc(C(=O)Nc3ccncc3)c2)c1 [Compound 5, 3-((3-(N-(3-(diethylamino)propyl)sulfamoyl)phenyl)amino)-N-(pyridin-4-yl)benzamide] | – | 68 µM | – | 74 µM | 1.31 µM | <10% | 1% | 29% | – | – | – | –
3 | O=C(NCCCN1CCCC1)c1cccc(Nc2cccc(/C=C/c3ccncc3)c2)c1 [Compound 585, reference compound] | – | 10 µM | – | 9 µM | 0.3 µM | <10% | 42% | 77% | – | – | – | –
4 | O=C(Nc1ccncc1)c1cccc(Nc2cccc(S(=O)(=O)NCCCN3CCOCC3)c2)c1 [Compound 12, 3-((3-(N-(3-morpholinopropyl)sulfamoyl)phenyl)amino)-N-(pyridin-4-yl)benzamide] | – | 60 µM | – | 54 µM | 0.46 µM | <10% | 11% | 55% | – | – | – | –
5 | CCN(CC)CCCNC(=O)c1cccc(Nc2cccc(C(=O)Nc3ccncn3)c2)n1 [Compound 40, N-(3-(diethylamino)propyl)-6-((3-(pyrimidin-4-ylcarbamoyl)phenyl)amino)picolinamide] | – | 73 µM | – | >100 µM | 0.75 µM | <10% | 26% | 59% | – | – | – | –
6 | CCN(CC)CCCNC(=O)c1ccnc(Nc2cccc(C(=O)Nc3ccncn3)c2)c1 [Compound 41, N-(3-(diethylamino)propyl)-2-((3-(pyrimidin-4-ylcarbamoyl)phenyl)amino)isonicotinamide] | – | ≥80 µM | – | >100 µM | 1.5 µM | <10% | 8% | 53% | – | – | – | –
7 | CCN(CC)CCCNC(=O)c1cccc(Nc2cccc(C(=O)Nc3ccncc3)c2)c1 [Compound 1, N-(3-(diethylamino)propyl)-3-((3-(pyridin-4-ylcarbamoyl)phenyl)amino)benzamide] | less toxic | 46 µM | less toxic | 51 µM | 0.13 µM | <10% | 13% | 47% | less hERG inhibition | more potent | 0.13 µM | anti-invasive activity is detected
8 | O=C(NCCCN1CCOCC1)c1cccc(Nc2cccc(/C=C/c3ccncc3)c2)c1 [Compound 583, reference compound] | – | 21 µM | – | 18 µM | 0.25 µM | <10% | 36% | 74% | – | – | – | –
9 | CCN(CC)CCCNC(=O)c1cccc(Nc2cccc(C(=O)Nc3ccncc3)c2)n1 [Compound 35, N-(3-(diethylamino)propyl)-6-((3-(pyridin-4-ylcarbamoyl)phenyl)amino)picolinamide] | – | 59 µM | – | 128 µM | 0.55 µM | <10% | 4% | 30% | – | – | – | –
10 | O=C(Nc1ccncc1)c1cccc(Nc2cccc(S(=O)(=O)NCCCN3CCCCC3)c2)c1 [Compound 9, 3-((3-(N-(3-(piperidin-1-yl)propyl)sulfamoyl)phenyl)amino)-N-(pyridin-4-yl)benzamide] | – | 44 µM | – | 36 µM | 0.28 µM | <10% | 5% | 50% | – | – | – | –
11 | O=C(NCCCN1CCCC1)c1cccc(Nc2cccc(C(=O)Nc3ccncc3)c2)c1 [Compound 4, N-(pyridin-4-yl)-3-((3-((3-(pyrrolidin-1-yl)propyl)carbamoyl)phenyl)amino)benzamide] | less toxic | 54 µM | less toxic | 42 µM | 0.21 µM | <10% | 6% | 59% | less hERG inhibition | more potent | – | –
